The values below are quoted from earlier work in patent US11246836B2, “Intramuscular depot of decoquinate compositions and method of prophylaxis and treatment thereof” (BLUELIGHT PHARMATECH CO., LTD., priority 2018, dated 2022).

In brackets after ≈: the same amount, converted by molar mass.

For one data set, the system named is P. yoelii. The note with it: 50 mg/kg in a corn oil emulsion.
For a further data set, the system named is Plasmodium berghei ANKA. The settings on record: single dose of 5 mg/kg suspended in soybean oil.

Consider `CCCCCCCCCCOc1cc2c(=O)c(C(=O)OCC)c[nH]c2cc1OCC` [decoquinate, ethyl-6-decyloxy-7-ethoxy-4-hydroxyquinoline-3-carboxylate], for which the “minimum inhibitory concentration (MIC)” value in the data set on Plasmodium is 5.12 ng/mL (≈ 0.0123 µM). The “causal prophylaxis of parasitemia” value in the data set on P. yoelii is recorded as “efficacious”. In addition, the “appearance of blood stage parasites” value in the data set on Plasmodium berghei ANKA is on record as “prevent the appearance of blood stage Plasmodium berghei ANKA parasites”.
